Reference: patent publication US10363239B2, “Method for inhibiting growth of cancer cells” (Pain Therapeutics, Inc., priority 2013, dated 2019)

Legend:
Conditions in all cases: 0.1-5 nM; 4 days
[1] = system: primary human mammary epithelial cells (HMECs); experiment: Cell proliferation by cell-cycling markers Ki67 and PCNA (Western blots); type: cell-based
Method: (§1) The effect of contact with Compound C0105 on cell proliferation was determined by the levels of cell-cycling markers: Ki67 and PCNA using Western blots in HTB-22 and control human mammary epithelial cells (HMECs). Cells treated with vehicle and 0.1-5 nM Compound C0105 for 4 days were collected, washed and solubilized. The resultant cell lysates were size-fractionated on SDS-PAGE and Western blotting to determine the levels of Ki67, PCNA and actin (loading control). The protein bands were quantified using densitometric scanning.
The effect of C0105 on cell proliferation was determined by the levels of cell-cycling markers Ki67 and PCNA using Western blots in HTB-22 and control HMECs. Cells contacted with vehicle and 0.1-5 nM Compound C0105 for 4 days were collected, washed and solubilized. […] The protein bands were quantified using densitometric scanning. […]
To study the effect of Compound C0105 on PI3K activity, the cancer and primary normal cells were cultured to approximately 60-70% confluency, serum deprived for 4 hours, briefly washed with PBS and treated with vehicle or 0.1, 0.5, 1 or 5 nM Compound C0105 for 24 hours with in 0.1% FBS-containing culture medium. […] The cell pellets were sonicated in ice-cold immunoprecipitation buffer and protein concentrations measured by the Bradford method. […]

[2] = system: pS2448mTOR, pS473Akt, pY/pT-ERK2 in glioblastoma cells; experiment: Activated (phosphorylated) mTOR, Akt and ERK2 levels (immunoprecipitation, Western blotting); type: cell-based, human
Method: FIG. 10A through FIG. 10C illustrate the effect of contact with Compound C0105 on the levels of activated (phosphorylated) mTOR (pS^2448mTOR), Akt (pS^473Akt) and ERK2 (pY/pT-ERK2) in glioblastoma cells. Cells were treated with vehicle and 0.1-5 nM C0105 for 4 days. Cells were washed, solubilized and the resultant cell lysate was immunoprecipitated with anti-mTOR, -Akt or -ERK2. The levels of pS^2448mTOR, pS^473Akt, pY/pTERK2 in the respective anti-mTOR, -Akt, and -ERK2 immunoprecipitates were determined by Western blotting. The density of protein bands was measured by densitometric scanning. […] N=4. *p<0.01 compared to vehicle (open bars). […]
The cell lysates were diluted 5-fold with immunoprecipitation buffer and immunoprecipitated with anti-FLNA, -Akt, -mTOR and -ERK2 as described previously [Talbot et al., J Clin Inv 122(4):1-23 (2012); Wang et al., J Neurosci 32(29):9773-9784 (2012)]. The levels of FLNA linkages, activated phosphorylated Akt (pS^473 and pT^308), phosphorylated mTOR (pS^2448) and phosphorylated ERK2 (pY/pT) were determined in anti-FLNA, -Akt, -mTOR and -ERK2 immunoprecipitates by Western blotting with appropriate antibodies directed against PTEN, PP2A, K-RAS, ras-GAP (FLNA linkages), pS^473Akt, pT^308Akt, pS^2448mTOR and pY/pT ERK2 (activation of Akt, mTOR and ERK2).

[3] = system: glioblastoma (U-87MG) cells; experiment: Cell proliferation by cell-cycling markers Ki67 and PCNA (Western blots); type: cell-based, human
Method: as §1, with “glioblastoma (U-87MG) cells.” for “HTB-22 and control human mammary epithelial cells (HMECs).”, “contacted” for “treated”, “scanning. […] N=4. *p<0.01 compared to vehicle (open bars).” for “scanning.”
To study the effect of Compound C0105 on PI3K activity, the cancer and primary normal cells were cultured to approximately 60-70% confluency, serum deprived for 4 hours, briefly washed with PBS and treated with vehicle or 0.1, 0.5, 1 or 5 nM Compound C0105 for 24 hours with in 0.1% FBS-containing culture medium. The cells were then washed with PBS, scraped off and collected by centrifugation. The cell pellets were sonicated in ice-cold immunoprecipitation buffer and protein concentrations measured by the Bradford method. […]
Immunoreactivity was visualized by reaction in ECL Plus chemiluminescent reagent for exactly 5 minutes, followed by immediate exposure of the blot to X-ray film (Z & Z Medical). Bands at the relevant molecular masses of Ki67 and PCNA were quantified by densitometric scan. […]

Question: Which results are given for `CN1CCC2(CC1)NCC(=O)N2Cc1ccccc1` [Compound C0105]?
Answer: Cell proliferation (Ki67 and PCNA levels) [1]: had no effect; mTOR, Akt and ERK activation (phosphorylated mTOR, Akt and ERK) [2]: robustly reduces mTOR, Akt and ERK activation; Cell proliferation (Ki67 and PCNA levels) [3]: reduces cell proliferation
